Laboratory results from ChEMBL document CHEMBL5033997, “Macrolide Inspired Macrocycles as Modulators of the IL-17A/IL-17RA Interaction” (J Med Chem, 2021).
≈ marks a conversion by molar mass, not a printed value.

Columns and labels:
[1] = Kinetic solubility of compound in PBS incubated for 2 hrs; assay type: physicochemical; settings: read-out: Kinetic_solubility
[2] = Plasma protein binding in human measured after 4 hrs by LC-MS/MS based equilibrium dialysis method; assay type: ADME, cell-free; settings: read-out: PPB (converted)
[3] = biological target: T1, Cytochrome P450 3A4 (Homo sapiens, UniProt P08684); test: Inhibition of recombinant human CYP3A4 at 10 uM using DBF as probe substrate relative to control; assay type: ADME; settings: recombinant enzyme
T1 sequence (P08684 whole entry): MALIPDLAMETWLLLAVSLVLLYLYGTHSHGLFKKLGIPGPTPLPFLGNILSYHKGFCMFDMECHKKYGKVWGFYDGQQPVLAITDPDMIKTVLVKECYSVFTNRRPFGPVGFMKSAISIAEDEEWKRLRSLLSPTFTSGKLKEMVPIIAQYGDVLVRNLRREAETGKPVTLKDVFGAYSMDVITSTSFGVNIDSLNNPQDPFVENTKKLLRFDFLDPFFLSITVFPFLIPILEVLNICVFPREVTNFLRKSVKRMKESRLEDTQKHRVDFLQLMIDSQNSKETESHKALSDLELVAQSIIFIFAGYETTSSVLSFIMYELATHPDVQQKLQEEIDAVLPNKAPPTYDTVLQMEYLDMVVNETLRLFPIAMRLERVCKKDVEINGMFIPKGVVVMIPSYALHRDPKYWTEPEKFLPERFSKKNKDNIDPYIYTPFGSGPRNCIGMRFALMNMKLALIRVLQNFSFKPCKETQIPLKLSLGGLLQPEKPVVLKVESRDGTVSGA

[4] = system: THP-1; test: Cytotoxicity against human THP-1 cells; assay type: cell-based
[5] = Apparent permeability across apical to basolateral side in MDCKII-MDR1 measured after 1 hrs by LC-MS/MS method; assay type: ADME, Canis lupus familiaris; settings: dog, MDCK-MDR1
[6] = biological target: T1, Cytochrome P450 3A4; test: Inhibition of recombinant human CYP3A4 at 10 uM using 7BQ as probe substrate relative to control; assay type: ADME; settings: recombinant enzyme
[7] = Stability in CD-1 mouse blood assessed as compound remaining at 1 uM measured upto 60 min by LC-MS/MS analysis; assay type: ADME, tissue-based; settings: whole blood, read-out: Stability
[8] = Stability in human blood assessed as compound remaining at 1 uM measured upto 60 min by LC-MS/MS analysis; assay type: ADME, tissue-based; settings: whole blood, read-out: Stability
[9] = Stability in mouse liver microsomes at 1 uM incubated for 1 hr in presence of NADPH by LC-MS/MS analysis relative to liver blood flow; assay type: ADME, Microsome; settings: read-out: Stability
[10] = Stability in human liver microsomes at 1 uM incubated for 1 hr in presence of NADPH by LC-MS/MS analysis relative to liver blood flow; assay type: ADME, Microsome; settings: read-out: Stability
[11] = Clearance in CD-1 mouse at 5 to 10 mg/kg, po or 1 mg/kg, iv measured upto 8 hrs by LC-MS/MS method; assay type: ADME, organism-based; settings: in vivo, dose 5-10 mg/kg
[12] = Volume of distribution at steady state in CD-1 mouse at 5 to 10 mg/kg, po or 1 mg/kg, iv measured upto 8 hrs by LC-MS/MS method; assay type: ADME, organism-based; settings: in vivo, dose 5-10 mg/kg, read-out: Vdss
[13] = Half life in CD-1 mouse at 5 to 10 mg/kg, po or 1 mg/kg, iv measured upto 8 hrs by LC-MS/MS method; assay type: ADME, organism-based; settings: in vivo, dose 5-10 mg/kg
[14] = biological target: Voltage-gated inwardly rectifying potassium channel KCNH2 (Homo sapiens, UniProt Q12809); test: Inhibition of human ERG by fluorescence polarization assay
Voltage-gated inwardly rectifying potassium channel KCNH2, sequence (Q12809 whole entry): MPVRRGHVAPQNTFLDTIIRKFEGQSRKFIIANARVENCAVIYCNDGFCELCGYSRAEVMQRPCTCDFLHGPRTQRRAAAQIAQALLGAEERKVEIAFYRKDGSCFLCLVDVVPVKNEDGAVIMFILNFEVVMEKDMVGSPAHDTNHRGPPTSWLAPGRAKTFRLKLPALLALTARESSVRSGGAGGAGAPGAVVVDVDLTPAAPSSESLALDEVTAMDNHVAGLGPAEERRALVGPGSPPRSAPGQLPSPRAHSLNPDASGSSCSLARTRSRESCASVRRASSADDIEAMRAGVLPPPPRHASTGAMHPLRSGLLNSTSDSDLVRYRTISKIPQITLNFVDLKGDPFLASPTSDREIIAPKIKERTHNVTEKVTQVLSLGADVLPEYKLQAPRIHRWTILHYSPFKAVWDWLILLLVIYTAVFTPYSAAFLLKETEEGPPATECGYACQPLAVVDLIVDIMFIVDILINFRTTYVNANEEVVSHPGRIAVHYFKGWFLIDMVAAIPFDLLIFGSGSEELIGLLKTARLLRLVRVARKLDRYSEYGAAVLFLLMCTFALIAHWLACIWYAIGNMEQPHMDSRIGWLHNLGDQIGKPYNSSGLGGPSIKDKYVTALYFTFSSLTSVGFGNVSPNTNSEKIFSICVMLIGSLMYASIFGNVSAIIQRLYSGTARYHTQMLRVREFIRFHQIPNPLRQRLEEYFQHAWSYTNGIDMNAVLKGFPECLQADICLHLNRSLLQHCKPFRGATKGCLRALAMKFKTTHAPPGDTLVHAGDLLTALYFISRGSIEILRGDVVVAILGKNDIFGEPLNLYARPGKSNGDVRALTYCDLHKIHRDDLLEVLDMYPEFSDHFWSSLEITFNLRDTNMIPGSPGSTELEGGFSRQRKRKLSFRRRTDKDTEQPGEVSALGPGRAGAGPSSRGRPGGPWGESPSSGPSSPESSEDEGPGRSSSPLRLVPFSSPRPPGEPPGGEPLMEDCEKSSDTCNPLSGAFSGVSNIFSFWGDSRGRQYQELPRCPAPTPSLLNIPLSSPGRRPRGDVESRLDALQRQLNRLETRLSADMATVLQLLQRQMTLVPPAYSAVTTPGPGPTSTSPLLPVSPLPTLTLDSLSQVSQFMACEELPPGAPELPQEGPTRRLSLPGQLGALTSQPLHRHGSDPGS

[15] = system: Keratinocyte; test: Anti-inflammatory activity in human keratinocyte assessed as inhibition of IL-8 secretion preincubated for 2 hrs followed by TNFalpha/IL17 stimulation for 3 days by FRET assay; assay type: functional, cell-based
[16] = Inhibition of recombinant human IL-17A/IL-17AR protein-protein interaction using TMB substrate compound added on IL17A precoated plate and followed by IL-17AR addition by ELISA
[17] = Chromatographic hydrophobicity index, log D of the compound at pH 7.4; assay type: physicochemical; settings: buffer
[18] = Clearance in CD-1 mouse at 5 to 10 mg/kg, po or 1 mg/kg, iv measured upto 8 hrs by LC-MS/MS method relative to liver blood flow; assay type: ADME, organism-based; settings: in vivo, dose 5-10 mg/kg
[19] = Oral bioavailability in CD-1 mouse at 5 to 10 mg/kg measured upto 8 hrs by LC-MS/MS method; assay type: ADME, organism-based; settings: in vivo, dose 5-10 mg/kg

Structure (SMILES) | solubility kinetic at 2 h [1] [µM] | fraction unbound at 4 h [2] | inhibition (INH) [3] [%] | IC50 [4] [nM] | Papp A→B at 1 h [5] [×10⁻⁶ cm/s] | inhibition (INH) [6] [%] | remaining at 1 h, 1 µM [7] [%] | remaining at 1 h, 1 µM [8] [%] | hepatic extraction ratio at 1 h, 1 µM [9] | hepatic extraction ratio at 1 h, 1 µM [10] | clearance [11] [mL/min/kg] | Vd [12] [L/kg] | half-life [13] [min] | IC50 [14] [nM] | IC50 [15] [nM] | IC50 [16] [nM] | CHI [17] | CLH [18] [%] | bioavailability [19] [%]
CO[C@]1(C)C[C@H](O[C@H]2[C@H](C)[C@@H](O[C@@H]3O[C@H](C)C[C@H](N(C)C)[C@H]3O)[C@](C)(O)C[C@@H](C)CN(C)C(=O)C[C@@H](Cc3ccc(NC(=O)[C@H](Cc4ccccc4Cl)NC(=O)NCc4ccccc4)cc3)NC(=O)[C@H](C(C)C)NC(=O)[C@@H]2C)O[C@@H](C)[C@@H]1O | 30 (≈ 35.4 µg/mL) | 0.044 | 3 | > 10000 | 0.1 | 24 | 69 | 54 | 0.45 | 0.06 | 66 | 3.1 | 54 | > 10000 | 404 | 39 | 4.3 | 77 | 
CO[C@]1(C)C[C@H](O[C@H]2[C@H](C)[C@@H](O[C@@H]3O[C@H](C)C[C@H](N(C)C)[C@H]3O)[C@](C)(O)C[C@@H](C)CN(C)C(=O)C[C@@H](Cc3ccc(NC(=O)[C@H](Cc4ccccc4Cl)NC(=O)Cc4ccccc4)cc3)NC(=O)[C@H](C(C)C)NC(=O)[C@@H]2C)O[C@@H](C)[C@@H]1O | 10 (≈ 11.6 µg/mL) | 0.058 | 29 | > 30000 | 0.8 | 26 | 1 | 100 | 0.78 | 0.44 | 66 | 2.3 |  | > 10000 | 556 | 170 | 4.4 | 73 | 1
